In article PMC12892976, “Alkylation-based optimization of antifungal FPPS inhibitors yields a potent, broad-spectrum lipophilic zoledronate derivative” (mBio, 2025):
Read-outs that look alike come from different tables or passages of the source.

Key:
Saccharomyces cerevisiae [1] = assay: MIC/MFC broth microdilution (CLSI); assay type: cell-based; details: Saccharomyces cerevisiae S288c
Experimental: (§1) Antifungal susceptibility was determined by broth microdilution according to the CLSI guidelines described in M27-Ed4 ([16]). […] MFC was determined by back-plating drug-treated cultures from MIC broths onto SDA plates. The MFC was defined as the lowest concentration from which no colonies could be cultured.

Candida albicans [2] = assay: MIC/MFC broth microdilution (CLSI); assay type: cell-based; details: Candida albicans SC5314
Experimental: as §1

[3] = test system: Cryptococcus deuterogattii; assay: checkerboard drug interaction (FICI, MICc);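 for all read-outs here: simplified diagonal checkerboard screen pairing antifungal drugs with FPPS inhibitors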; assay type: cell-based; details: C. deuterogattii; for INH FD (MIC-MICc fold decrease): fold decrease of inhibitor MIC
Experimental: (§2) Drug interactions between antifungals and FPPS inhibitors were investigated using a simplified checkerboard diagonal screening method ([45]). […] FICIs were determined according to the Loewe additivity model ([17]).

Cryptococcus neoformans [4] = assay: checkerboard drug interaction (FICI, MICc);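 for all read-outs here: antifungal plus FPPS inhibitor pairs tested against Cryptococcus neoformans by simplified diagonal checkerboard screening, FICI computed under the Loewe additivity model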; assay type: cell-based; details: C. neoformans; for INH FD (MIC-MICc fold decrease): fold decrease of inhibitor MIC
Experimental: as §2

Saccharomyces cerevisiae [5] = assay: checkerboard drug interaction (FICI, MICc);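 for all read-outs here: simplified diagonal checkerboard screen pairing antifungals with FPPS inhibitors, FICI calculated under the Loewe additivity model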; assay type: cell-based; design: INH MICc / INH MICc (ITR:INH) / INH MICc (KET:INH) / INH MICc (FLC:INH): unit not given beside the values; details: S. cerevisiae; for INH FD (MIC-MICc fold decrease): fold decrease of inhibitor MIC
Candida glabrata [6] = assay: checkerboard drug interaction (FICI, MICc);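 for all read-outs here: simplified diagonal checkerboard screen pairing antifungals with FPPS inhibitors, FICI calculated under the Loewe additivity model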; assay type: cell-based; details: C. glabrata; for INH FD (MIC-MICc fold decrease): fold decrease of inhibitor MIC
Experimental: as §2

Candida albicans [7] = assay: checkerboard drug interaction (FICI, MICc);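 for all read-outs here: antifungal plus FPPS inhibitor combinations on Candida albicans tested by a simplified diagonal checkerboard screen, with FICI calculated under the Loewe additivity model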; assay type: cell-based; details: C. albicans; for INH FD (MIC-MICc fold decrease): fold decrease of inhibitor MIC
Experimental: as §2

Aspergillus flavus [8] = assay: checkerboard drug interaction (FICI, MICc);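 note: simplified diagonal checkerboard screen pairing azole antifungals with FPPS inhibitors, FICI calculated under the Loewe additivity model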; assay type: cell-based; design: INH MICc (KET:INH) / INH MICc (FLC:INH): unit not given beside the values; details: A. flavus
Aspergillus fumigatus [9] = assay: checkerboard drug interaction (FICI, MICc);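 for all read-outs here: simplified diagonal checkerboard screen pairing antifungals with FPPS inhibitors against Aspergillus fumigatus, with FICI calculated under the Loewe additivity model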; assay type: cell-based; details: A. fumigatus; for INH FD (MIC-MICc fold decrease): fold decrease of inhibitor MIC
Experimental: as §2

Trichophyton rubrum [10] = assay: checkerboard drug interaction (FICI, MICc);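 note: simplified diagonal checkerboard screen pairing azole antifungals with FPPS inhibitors, FICI calculated under the Loewe additivity model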; assay type: cell-based; details: T. rubrum
Experimental: as §2

HEK-293T cells = assay: MTT reduction cytotoxicity assay; assay type: cell-based; details: Homo sapiens, HEK-293T, 72 h, HEK-293T, MTT, 72 h; read-out: HEK IC50
eight fungal species [11] = assay: MIC/MFC summary across the eight fungal species of Table 1; assay type: cell-based
Experimental: The antifungal activity of these compounds was evaluated according to CLSI guidelines ([16]).

eight fungal species [12] = assay: checkerboard interaction with azoles, summary across the eight species; assay type: cell-based; details: geometric mean MIC in combination with azoles
From the text: Synergy between lipophilic FPPS inhibitors and azole antifungals was investigated by determining the fractional inhibitory concentration index (FICI) (Fig. 2; Table S1 Fig. S1) ([17]). […]. Derivatives PLA9 and 11, and PDA9, 11, and 12 antagonized azoles in C. albicans, C. neoformans, and C. deuterogattii, yet were largely synergistic in C. glabrata and S. cerevisiae. […].

[13] = test system: Cryptococcus deuterogattii; assay: MIC/MFC broth microdilution (CLSI); details: Cryptococcus deuterogattii;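 note: broth microdilution per CLSI M27-Ed4. MFC is the lowest concentration yielding no colonies when MIC broths are subcultured onto SDA plates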
Experimental: as §1

Cryptococcus neoformans [14] = assay: MIC/MFC broth microdilution (CLSI); details: Cryptococcus neoformans;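 note: susceptibility testing followed the CLSI M27-Ed4 broth microdilution document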
Experimental: as §1

Candida glabrata [15] = assay: MIC/MFC broth microdilution (CLSI); details: Nakaseomyces glabratus, CBS138;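 note: broth microdilution following CLSI M27-Ed4, MFC taken as the lowest drug level yielding no growth once MIC wells were subcultured on SDA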
Experimental: as §1

Aspergillus flavus [16] = assay: MIC/MFC broth microdilution (CLSI); details: ATCC204304
Experimental: as §1

Aspergillus fumigatus [17] = assay: MIC/MFC broth microdilution (CLSI); details: ATCC204305
Experimental: as §1

Trichophyton rubrum [18] = assay: MIC/MFC broth microdilution (CLSI); details: Trichophyton rubrum
Experimental: as §1

[19] = FLC:INH combination, MIC of the inhibitor in combination with FLC
[20] = FLC:INH combination, fold decrease of FLC MIC
[21] = ITR:INH combination, MIC of the inhibitor in combination with ITR
[22] = ITR:INH combination, fold decrease of ITR MIC
[23] = KET:INH combination, MIC of the inhibitor in combination with KET
[24] = KET:INH combination, fold decrease of KET MIC
[25] = FLC:INH combination, MIC of FLC in combination with the inhibitor
[26] = ITR:INH combination, MIC of ITR in combination with the inhibitor
[27] = KET:INH combination, MIC of KET in combination with the inhibitor
[28] = Fractional Inhibitory Concentration Index, fluconazole + inhibitor
[29] = Fractional Inhibitory Concentration Index, itraconazole + inhibitor
[30] = Fractional Inhibitory Concentration Index, ketoconazole + inhibitor
[31] = MIC of the inhibitor in combination with fluconazole
[32] = MIC of the inhibitor in combination with itraconazole
[33] = MIC of the inhibitor in combination with ketoconazole
[34] = MIC-MICc fold decrease of fluconazole, negative = increase
[35] = MIC-MICc fold decrease of itraconazole, negative = increase
[36] = MIC-MICc fold decrease of ketoconazole, negative = increase
[37] = MIC-MICc fold decrease of the inhibitor, with fluconazole
[38] = MIC-MICc fold decrease of the inhibitor, with itraconazole
[39] = MIC-MICc fold decrease of the inhibitor, with ketoconazole

SMILES: CCCCCCCCCCCN1CCC[C@H]1C(=O)N[C@@H](CC(=O)O)C(=O)O [PLA11]
- MFC (Saccharomyces cerevisiae [1]): > 128 µg/mL
- MIC (Saccharomyces cerevisiae [1]): > 128 µg/mL
- MFC (Candida albicans [2]): > 128 µg/mL
- MIC (Candida albicans [2]): > 128 µg/mL
- FICI ([3]; FLC:INH combination): ≥4
- INH MICc [3, 19]: 256
- FLC FD (MIC-MICc fold decrease) [3, 20]: -4
- INH FD (MIC-MICc fold decrease) ([3]; FLC:INH combination): 1
- FICI ([3]; ITR:INH combination): ≥4
- INH MICc [3, 21]: 128
- ITR FD (MIC-MICc fold decrease) [3, 22]: -4
- INH FD (MIC-MICc fold decrease) ([3]; ITR:INH combination): 2
- FICI ([3]; KET:INH combination): 1
- INH MICc [3, 23]: 128
- KET FD (MIC-MICc fold decrease) [3, 24]: 2
- INH FD (MIC-MICc fold decrease) ([3]; KET:INH combination): 2
- FICI (Cryptococcus neoformans [4]; FLC:INH combination): ≥4
- INH MICc (Cryptococcus neoformans [4]; [19]): 256
- FLC FD (MIC-MICc fold decrease) (Cryptococcus neoformans [4]; [20]): < -4
- INH FD (MIC-MICc fold decrease) (Cryptococcus neoformans [4]; FLC:INH combination): 1
- FICI (Cryptococcus neoformans [4]; ITR:INH combination): ≥4
- INH MICc (Cryptococcus neoformans [4]; [21]): 256
- ITR FD (MIC-MICc fold decrease) (Cryptococcus neoformans [4]; [22]): < -4
- INH FD (MIC-MICc fold decrease) (Cryptococcus neoformans [4]; ITR:INH combination): 1
- FICI (Cryptococcus neoformans [4]; KET:INH combination): ≥4
- INH MICc (Cryptococcus neoformans [4]; [23]): 128
- KET FD (MIC-MICc fold decrease) (Cryptococcus neoformans [4]; [24]): -4
- INH FD (MIC-MICc fold decrease) (Cryptococcus neoformans [4]; KET:INH combination): 2
- FICI (Saccharomyces cerevisiae [5]; FLC:INH combination): 0.31
- FLC MICc (Saccharomyces cerevisiae [5]; [25]): 1
- INH MICc (Saccharomyces cerevisiae [5]; [19]): 16
- FLC FD (MIC-MICc fold decrease) (Saccharomyces cerevisiae [5]; [20]): 4
- INH FD (MIC-MICc fold decrease) (Saccharomyces cerevisiae [5]; FLC:INH combination): 16
- FICI (Saccharomyces cerevisiae [5]; ITR:INH combination): 0.38
- ITR MICc (Saccharomyces cerevisiae [5]; [26]): 0.063
- INH MICc (Saccharomyces cerevisiae [5]; [21]): 32
- ITR FD (MIC-MICc fold decrease) (Saccharomyces cerevisiae [5]; [22]): 4
- INH FD (MIC-MICc fold decrease) (Saccharomyces cerevisiae [5]; ITR:INH combination): 8
- FICI (Saccharomyces cerevisiae [5]; KET:INH combination): 0.28
- KET MICc (Saccharomyces cerevisiae [5]; [27]): 0.5
- INH MICc (Saccharomyces cerevisiae [5]; [23]): 8
- KET FD (MIC-MICc fold decrease) (Saccharomyces cerevisiae [5]; [24]): 4
- INH FD (MIC-MICc fold decrease) (Saccharomyces cerevisiae [5]; KET:INH combination): 32
- FICI (Candida glabrata [6]; FLC:INH combination): 0.28
- INH MICc (Candida glabrata [6]; [19]): 4
- FLC FD (MIC-MICc fold decrease) (Candida glabrata [6]; [20]): 4
- INH FD (MIC-MICc fold decrease) (Candida glabrata [6]; FLC:INH combination): 64
- FICI (Candida glabrata [6]; ITR:INH combination): 0.27
- INH MICc (Candida glabrata [6]; [21]): 2
- ITR FD (MIC-MICc fold decrease) (Candida glabrata [6]; [22]): 4
- INH FD (MIC-MICc fold decrease) (Candida glabrata [6]; ITR:INH combination): 128
- FICI (Candida glabrata [6]; KET:INH combination): 0.27
- INH MICc (Candida glabrata [6]; [23]): 2
- KET FD (MIC-MICc fold decrease) (Candida glabrata [6]; [24]): 4
- INH FD (MIC-MICc fold decrease) (Candida glabrata [6]; KET:INH combination): 128
- FICI (Candida albicans [7]; FLC:INH combination): ≥4
- INH MICc (Candida albicans [7]; [19]): 256
- FLC FD (MIC-MICc fold decrease) (Candida albicans [7]; [20]): -4
- INH FD (MIC-MICc fold decrease) (Candida albicans [7]; FLC:INH combination): 1
- FICI (Candida albicans [7]; ITR:INH combination): ≥4
- INH MICc (Candida albicans [7]; [21]): 256
- ITR FD (MIC-MICc fold decrease) (Candida albicans [7]; [22]): -4
- INH FD (MIC-MICc fold decrease) (Candida albicans [7]; ITR:INH combination): 1
- FICI (Candida albicans [7]; KET:INH combination): ≥4
- INH MICc (Candida albicans [7]; [23]): 128
- KET FD (MIC-MICc fold decrease) (Candida albicans [7]; [24]): < -4
- INH FD (MIC-MICc fold decrease) (Candida albicans [7]; KET:INH combination): 2
- FICI (FLC:INH) (Aspergillus flavus [8]; [28]): 0.75
- FICI (ITR:INH) (Aspergillus flavus [8]; [29]): 0.52
- FICI (KET:INH) (Aspergillus flavus [8]; [30]): 2
- INH MICc (FLC:INH) (Aspergillus flavus [8]; [31]): 64
- INH MICc (ITR:INH) (Aspergillus flavus [8]; [32]): 4
- INH MICc (KET:INH) (Aspergillus flavus [8]; [33]): 256
- FLC FD (FLC:INH) (Aspergillus flavus [8]; [34]): 2
- ITR FD (ITR:INH) (Aspergillus flavus [8]; [35]): 2
- KET FD (KET:INH) (Aspergillus flavus [8]; [36]): 1
- INH FD (FLC:INH) (Aspergillus flavus [8]; [37]): 4
- INH FD (ITR:INH) (Aspergillus flavus [8]; [38]): 64
- INH FD (KET:INH) (Aspergillus flavus [8]; [39]): 1
- FICI (Aspergillus fumigatus [9]; FLC:INH combination): 2
- FLC MICc (Aspergillus fumigatus [9]; [25]): 128
- INH MICc (Aspergillus fumigatus [9]; [19]): 256
- FLC FD (MIC-MICc fold decrease) (Aspergillus fumigatus [9]; [20]): 1
- INH FD (MIC-MICc fold decrease) (Aspergillus fumigatus [9]; FLC:INH combination): 1
- FICI (Aspergillus fumigatus [9]; ITR:INH combination): 0.51
- ITR MICc (Aspergillus fumigatus [9]; [26]): 0.063
- INH MICc (Aspergillus fumigatus [9]; [21]): 2
- ITR FD (MIC-MICc fold decrease) (Aspergillus fumigatus [9]; [22]): 2
- INH FD (MIC-MICc fold decrease) (Aspergillus fumigatus [9]; ITR:INH combination): 128
- FICI (Aspergillus fumigatus [9]; KET:INH combination): 1.5
- KET MICc (Aspergillus fumigatus [9]; [27]): 4
- INH MICc (Aspergillus fumigatus [9]; [23]): 128
- KET FD (MIC-MICc fold decrease) (Aspergillus fumigatus [9]; [24]): 1
- INH FD (MIC-MICc fold decrease) (Aspergillus fumigatus [9]; KET:INH combination): 2
- FICI (FLC:INH) (Trichophyton rubrum [10]; [28]): 3
- FICI (ITR:INH) (Trichophyton rubrum [10]; [29]): 2
- FICI (KET:INH) (Trichophyton rubrum [10]; [30]): 1.5
- INH MICc (FLC:INH) (Trichophyton rubrum [10]; [31]): 256
- INH MICc (ITR:INH) (Trichophyton rubrum [10]; [32]): 256
- INH MICc (KET:INH) (Trichophyton rubrum [10]; [33]): 128
- FLC FD (FLC:INH) (Trichophyton rubrum [10]; [34]): -2
- ITR FD (ITR:INH) (Trichophyton rubrum [10]; [35]): 1
- KET FD (KET:INH) (Trichophyton rubrum [10]; [36]): 1
- INH FD (FLC:INH) (Trichophyton rubrum [10]; [37]): 1
- INH FD (ITR:INH) (Trichophyton rubrum [10]; [38]): 1
- INH FD (KET:INH) (Trichophyton rubrum [10]; [39]): 2
- IC50 (HEK-293T cells): > 256 µg/mL
- MFC (eight fungal species [11]; across eight species, read-out: Geometric mean MFC): > 128 µg/mL
- MIC (eight fungal species [11]; geometric mean across eight species, read-out: GM fungal MIC): > 128 µg/mL
- MIC (eight fungal species [11]; read-out: Geometric mean MIC): > 128 µg/mL
- GM fungal MICc (eight fungal species [12]): 55.4
- MFC [13]: > 128 µg/mL
- MIC [13]: > 128 µg/mL
- MFC (Cryptococcus neoformans [14]): > 128 µg/mL
- MIC (Cryptococcus neoformans [14]): > 128 µg/mL
- MFC (Candida glabrata [15]): > 128 µg/mL
- MIC (Candida glabrata [15]): > 128 µg/mL
- MFC (Aspergillus flavus [16]): > 128 µg/mL
- MIC (Aspergillus flavus [16]): > 128 µg/mL
- MFC (Aspergillus fumigatus [17]): > 128 µg/mL
- MIC (Aspergillus fumigatus [17]): > 128 µg/mL
- MFC (Trichophyton rubrum [18]): > 128 µg/mL
- MIC (Trichophyton rubrum [18]): > 128 µg/mL
